The text below walks through data of ChEMBL document CHEMBL1201862, “PubChem BioAssay data set” (2004).

Some test systems named below: A498; EKVX; HOP-62; HOP-92; HT-29; K562; KM12; LOX IMVI; MDA-MB-231; MOLT-4; NCI-H226; OVCAR-5; RXF 393; SF-539; SK-MEL-2; SK-OV-3; SN12C; T47D; UO-31; SR.
Assay in all cases: NCI tumour cell line growth inhibition, 48 h

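Interpolation was linear, between the two tested concentrations surrounding the appropriate level; five concentrations were tested over 48 hours in 96-well plates. GI50 = concentration required for 50% inhibition of growth.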 Activity calls are given as the source filed them. Cut-off read from the data, not from the text of the source: active = GI50 up to about 1.1 µM and inactive = higher. Non-standard residues stand in square brackets, D forms with d. Residues, ends and D or L forms follow the SMILES beside them. *: point of attachment. Bn2Val = CC(C)[C@@H](C(=O)*)N(Cc1ccccc1)Cc1ccccc1; NH(4-Cl-benzyl) = Clc1ccc(CN*)cc1; NMeV = CN[C@H](C(=O)O)C(C)C; dNMeA = CN[C@H](C)C(=O)O

`CSC(SC)=C(C(=O)c1ccc(Cl)cc1)n1c(=O)sc2cc(Br)ccc21`: the GI50 is > 100 µM (inactive) in the assay on A498; > 100 µM (inactive) in the assay on EKVX; > 100 µM (inactive) with HOP-62; 31.5 µM (inactive) in the assay on HOP-92; 98.6 µM (inactive) with HT-29; 36.5 µM (inactive) in the assay with K562. Moreover, the GI50 in the assay with KM12 is > 100 µM (inactive); in the assay on LOX IMVI, > 100 µM (inactive); in the assay on MDA-MB-231 it was > 100 µM (inactive); in the assay on MOLT-4 it was 18.7 µM (inactive); in the assay with NCI-H226 it was > 100 µM (inactive); in the assay with OVCAR-5 it was > 100 µM (inactive). Besides, the GI50 in the assay with RXF 393, with SF-539, in the assay on SK-MEL-2, in the assay on SK-OV-3, in the assay with SN12C and with T47D was > 100 µM (inactive) each time. Also, the GI50 with UO-31 was > 100 µM (inactive).
As for `C=C(Br)CNCC(=C)Br`, the GI50 in the assay on A498 was > 100 µM (inactive); with EKVX it was > 100 µM (inactive); in the assay on HOP-62, > 100 µM (inactive); in the assay with HT-29 it was 90.6 µM (inactive); in the assay with K562, 38 µM (inactive); in the assay on KM12, > 100 µM (inactive). Further, the GI50 in the assay on LOX IMVI was > 100 µM (inactive); in the assay on MDA-MB-231 it was > 100 µM (inactive); in the assay with MOLT-4, 48.6 µM (inactive); with NCI-H226, > 100 µM (inactive); in the assay on OVCAR-5, > 100 µM (inactive); in the assay with RXF 393 it was > 100 µM (inactive). Moreover, the GI50 with SF-539, with SK-MEL-2, with SK-OV-3, in the assay with SN12C, in the assay on SR and in the assay with T47D was > 100 µM (inactive) each time. Besides, the GI50 in the assay with UO-31 is > 100 µM (inactive).
Regarding `S=C1SC(=N\c2ccccc2)/C(=N/c2ccccc2)N1c1ccc2ccccc2c1`, the GI50 with A498, with HOP-62, in the assay on K562, in the assay on KM12, in the assay with MDA-MB-231 and with NCI-H226 was > 100 µM (inactive) each time. The GI50 with OVCAR-5 was > 100 µM (inactive); in the assay on RXF 393, 7.26 µM (inactive); in the assay on SK-MEL-2, > 100 µM (inactive); in the assay with SK-OV-3, > 100 µM (inactive); in the assay with SN12C, > 100 µM (inactive); with SR, > 100 µM (inactive). Besides, the GI50 in the assay on T47D and in the assay with UO-31 was > 100 µM (inactive) throughout.
As for `O=C1C=C(NCCc2cc(Br)c(O)c(Br)c2)C(=O)c2[nH]cnc21`, the GI50 was 96.2 µM (inactive) with EKVX; 38.6 µM (inactive) with HOP-62; 29.7 µM (inactive) with HOP-92; 26.9 µM (inactive) in the assay with HT-29; 14.9 µM (inactive) in the assay with K562; 48.5 µM (inactive) in the assay with KM12. Also, the GI50 with LOX IMVI was 21.5 µM (inactive); with MDA-MB-231, 29.4 µM (inactive); in the assay with MOLT-4 it was > 10 µM (inactive); with NCI-H226, 23 µM (inactive); in the assay with OVCAR-5, 29.9 µM (inactive); in the assay on RXF 393 it was 19.5 µM (inactive). Further, the GI50 is 22.4 µM (inactive) with SF-539; 23.4 µM (inactive) with SK-MEL-2; 41.2 µM (inactive) with SK-OV-3; 26.2 µM (inactive) in the assay on SN12C; 32.4 µM (inactive) in the assay with SR; 30.3 µM (inactive) in the assay with T47D. The GI50 with UO-31 was 75 µM (inactive).
For `COc1cccc2c1OCC1Cc3ccccc3OC21` (stereo unspecified), the GI50 in the assay on A498 was 99.1 µM (inactive); with EKVX it was 73.3 µM (inactive); in the assay on HOP-62 it was 36.2 µM (inactive); with HT-29, 57.4 µM (inactive); with K562, 61.1 µM (inactive); in the assay with KM12 it was 42.8 µM (inactive). For the same compound, the GI50 is 33.3 µM (inactive) with LOX IMVI; 31 µM (inactive) with MDA-MB-231; 28.8 µM (inactive) with MOLT-4; > 100 µM (inactive) in the assay with NCI-H226; > 100 µM (inactive) in the assay on OVCAR-5; 41.6 µM (inactive) in the assay on SF-539. Also, the GI50 was 35.4 µM (inactive) in the assay with SK-MEL-2; 92.3 µM (inactive) with SK-OV-3; 27.7 µM (inactive) in the assay with SN12C; 59.3 µM (inactive) with SR; 35.2 µM (inactive) in the assay on T47D; 35.2 µM (inactive) with UO-31.
Regarding `CCCCOCCOCCOC1=CC(=O)c2c(O)ccc(O)c2C1=O`, the GI50 in the assay on EKVX is 5.19 µM (inactive); in the assay on HOP-62 it was 1.79 µM (inactive); in the assay on HOP-92 it was 2.9 µM (inactive); with K562 it was 2.5 µM (inactive); with KM12, 1.83 µM (inactive); with LOX IMVI it was 1.86 µM (inactive). For the same compound, the GI50 was 1.73 µM (inactive) in the assay on MDA-MB-231; 2.65 µM (inactive) in the assay with MOLT-4; 2.01 µM (inactive) in the assay with NCI-H226; 1.94 µM (inactive) in the assay with RXF 393; 2.03 µM (inactive) in the assay with SF-539; 1.9 µM (inactive) with SK-MEL-2. In addition, the GI50 in the assay with SK-OV-3 is > 10 µM (inactive); with SN12C, 1.82 µM (inactive); in the assay with SR it was 2.7 µM (inactive); in the assay on T47D it was 2.65 µM (inactive); with UO-31, 1.58 µM (inactive).
For `N#CCCN(CCCN(C(=O)N(c1ccccc1)c1ccccc1)c1ccccc1)C(=O)Nc1ccccc1`, the GI50 in the assay with A498 was > 100 µM (inactive); in the assay with EKVX, 35.6 µM (inactive); with HOP-62 it was > 100 µM (inactive); in the assay with HOP-92 it was > 100 µM (inactive); with HT-29, 32.3 µM (inactive); in the assay with K562 it was 28.6 µM (inactive). In addition, the GI50 in the assay with KM12 is 41.6 µM (inactive); with LOX IMVI it was > 100 µM (inactive); with MDA-MB-231, > 100 µM (inactive); in the assay with MOLT-4, 11.5 µM (inactive); in the assay with NCI-H226, > 100 µM (inactive); with OVCAR-5, > 100 µM (inactive). Besides, the GI50 was > 100 µM (inactive) in the assay on RXF 393; > 100 µM (inactive) in the assay on SF-539; > 100 µM (inactive) with SK-MEL-2; > 100 µM (inactive) with SK-OV-3; 64.9 µM (inactive) with T47D; 67 µM (inactive) with UO-31.
With `O=C1CC(n2ccnc2)c2c(Cl)sc(Cl)c21` (stereo unspecified), the GI50 is 19.2 µM (inactive) in the assay with EKVX; 18.7 µM (inactive) in the assay on HOP-62; 19.8 µM (inactive) in the assay with HT-29; 7.89 µM (inactive) in the assay with K562; 15.6 µM (inactive) with KM12; 6.3 µM (inactive) with LOX IMVI. Besides, the GI50 in the assay on MDA-MB-231 is 18.9 µM (inactive); in the assay with MOLT-4 it was 3.86 µM (inactive); in the assay with NCI-H226, 31.6 µM (inactive); in the assay with OVCAR-5 it was 22.5 µM (inactive); with RXF 393, 16.4 µM (inactive); in the assay with SF-539, 17.2 µM (inactive). Also, the GI50 with SK-MEL-2 was 21.4 µM (inactive); in the assay with SK-OV-3 it was 23.1 µM (inactive); in the assay with SN12C it was 17.7 µM (inactive); in the assay on SR, 2.92 µM (inactive); in the assay on T47D, 21.9 µM (inactive); in the assay with UO-31, 14 µM (inactive).
In the case of `O=C(O)C1(Cc2ccccc2)Cc2ccccc2C1`, the GI50 in the assay with A498, in the assay with EKVX, in the assay with HOP-62, in the assay with HT-29, in the assay with K562 and with KM12 was > 100 µM (inactive) each time. In addition, the GI50 was > 100 µM (inactive) in the assay with LOX IMVI; > 100 µM (inactive) with MDA-MB-231; > 100 µM (inactive) with MOLT-4; > 100 µM (inactive) in the assay with NCI-H226; > 100 µM (inactive) in the assay on OVCAR-5; 69.7 µM (inactive) in the assay on RXF 393. Further, the GI50 in the assay on SF-539, in the assay with SK-MEL-2, in the assay with SK-OV-3, with SN12C, with SR and with T47D was > 100 µM (inactive) each time. Further, in the assay with UO-31, the GI50 was > 100 µM (inactive).
In the case of `O=C(CCN1CCCCC1)Nc1ccc2sc3ccccc3c(=O)c2n1`, the GI50 with EKVX was 20.2 µM (inactive); with HOP-62, 13.1 µM (inactive); in the assay on HOP-92 it was 0.411 µM (active); with HT-29, 31.6 µM (inactive); in the assay on K562, 6.38 µM (inactive); in the assay with KM12 it was 15.9 µM (inactive). In addition, the GI50 is 10.3 µM (inactive) in the assay on LOX IMVI; 14.7 µM (inactive) in the assay with MDA-MB-231; 2.56 µM (inactive) in the assay with MOLT-4; 18.2 µM (inactive) with OVCAR-5; 15.3 µM (inactive) in the assay with SF-539; > 10 µM (inactive) in the assay on SK-MEL-2. Further, the GI50 with SK-OV-3 is 23.2 µM (inactive); in the assay with SN12C, 12.3 µM (inactive); with SR it was 12.2 µM (inactive); in the assay on T47D it was 28.4 µM (inactive); with UO-31, 9.79 µM (inactive).
Take `CC(C)[C@H](NC(=O)[C@H](C(C)C)N(Cc1ccccc1)Cc1ccccc1)C(=O)N(C)[C@H](C(=O)N1CCC[C@H]1C(=O)N(C)[C@H](C)C(=O)NCc1ccc(Cl)cc1)C(C)C` (Bn2Val-V[NMeV]P[dNMeA]-{NH(4-Cl-benzyl)}): the GI50 in the assay with EKVX was 2.46 µM (inactive); in the assay with HOP-62, 4.38 µM (inactive); in the assay on HOP-92, 2.84 µM (inactive); in the assay on HT-29 it was 1.74 µM (inactive); with K562, 4.04 µM (inactive); in the assay with KM12 it was 3.38 µM (inactive). The GI50 in the assay on LOX IMVI is 1.85 µM (inactive); in the assay with MDA-MB-231 it was 2.65 µM (inactive); with MOLT-4 it was 2.42 µM (inactive); in the assay on NCI-H226, 3.72 µM (inactive); in the assay on OVCAR-5 it was 4.9 µM (inactive); in the assay on RXF 393, 1.53 µM (inactive). Further, the GI50 in the assay on SF-539 is 3.88 µM (inactive); with SK-MEL-2, 1.62 µM (inactive); in the assay with SK-OV-3, 16.2 µM (inactive); in the assay with SN12C it was 2.58 µM (inactive); in the assay with SR, 3.85 µM (inactive); in the assay on T47D it was 3.51 µM (inactive).
